Assay results from patent US20260028374A1, “EPIDERMAL GROWTH FACTOR RECEPTOR INHIBITORS” (FILAMON LTD, priority 2023, published 2026).
Square brackets hold non-standard residues; d marks the D form. Peptide text beside a SMILES is read from it. 2Nal = N[C@@H](Cc1ccc2ccccc2c1)C(=O)O

Key:
[1] = tested on: PC-3 cells; assay: MTS cell viability assay; type: cell-based; details: PC-3, MTS, 72 hours, 0-250 μM
Experimental: FIG. 2. (a) Structure of FLM-c2 derivatives D1 (top), D2 (middle) and D3 (bottom) (b) Molecular modelling of compounds D1, D2 and D3. Representation of the molecules are as described in FIG. 1. (c) MTS assay of PC-3 cells treated with FLM-c2, D-1 D3 (0.1-250 μM).
To quantify cell toxicity of FLM-c2, the MTS (3-(4,5-dimethylthiazol-2-yl)-5-(3-carboxymethoxyphenyl)-2-(4-sulfophenyl)-2H-tetrazolium) assay was performed using CellTiter 96@AQueous One Solution Cell Proliferation Assay reagent (Promega, Madison, WI), as per the manufacturer's instructions. PC-3 cells were seeded at 2000 cells per well on a 96 well plate overnight at 37° C. and 5% C02. Cells were then treated with 0-250 μM with each of FLM-c2, D1, D2 and D3, which was incubated for 72 hours at 37° C. and 5% C02. Medium was replaced with 100 μL/well of phenol red-free MEM (Sigma-Aldrich) and 20 μL/well of the MTS reagent was added. After incubation for 3 hours in 37° C. with 5% C02, the absorbance was measured at 490 nm with Spectramax M5e.

[2] = molecular target: T1, EGF-EGFR interaction (Homo sapiens, UniProt P00533); assay: EGF-EGFR AlphaLISA assay; type: binding; details: in vitro AlphaLISA
T1 construct: purchased Perkin-Elmer
Experimental: FIG. 2. […] Representation of the molecules are as described in FIG. 1.
The AlphaLISA EGF/EGFR binding kit (Perkin-Elmer) was used as per the manufacturer's instructions. […] Finally, 5 μL of EGFR acceptor beads were added, and fluorescence imaged on a plate reader.

[3] = molecular target: T2, hGIIA interaction with EGFR (Homo sapiens, UniProt P00533); assay: Co-immunoprecipitation of hGIIA and EGFR in PC-3 cells; type: cell-based; details: PC-3, hGIIA 2 μg/mL, FLM-c2 100 μM
T2 construct: endogenous in cells; host or cells: PC-3
Experimental: FIG. 1. (a), Amino acid sequence of human group IIA-secreted phospholipase A2 (hGIIA) predicted to interact with EGF-binding site of EGFR shown in magenta; helices shown as red braids; β strands as green arrows; and loops as blue lines. Sequence from which FLM-c2 is derived shown with orange box. (b), Prostate cancer cell line PC-3 incubated with hGIIA (2 μg/mL) and FLM-c2 (100 μM) for 3 hours before lysing and pulldown with hGIIA antibody followed by detection with EGFR antibody. (c), molecular modelling of EGF (pink ribbon) and (d), FLM-c2 analogue (cyclo-(Phe-Leu-Ser-Phe-Arg)) (stick diagram. Yellow, carbon; blue, nitrogen; red oxygen) binding to EGFR. EGFR is depicted as a surface model (red, basic surfaces; blue, acidic surfaces, yellow; cysteine residues; green, hydrophobic surfaces; white neutral surfaces). (e) PC-3 cells co-transfected with Rab5-mCherry (red), EGFR-GFP (green) and treated with hGIIA/AF647 (purple) as well as c2 at 1 μM and 10 μM for 24 hours. EGF (25 ng/mL) and Lapatinib (5 μM) were used as control treatments. N=3, >5 cells per replicate.
PC-3 cells were seeded in a 6-well plate at 300,000 cells/well and grown overnight at 37° C. and 5% CO2. Cells were then incubated with 2 μg/mL hGIIA with and without FLM-c2 (100 μM) for two hours. After incubation, cells were washed three times with 10 mL ice cold PBS for 2 min. […]

[4] = tested on: EGFR, Rab5 and hGIIA localisation; assay: Live cell imaging of EGFR, Rab5 and hGIIA localisation in PC-3 cells; type: cell-based; details: PC-3, c2 10 μM with hGIIA/AF647, 24 hours
Experimental: The effect of c2 on EGFR, Rab5 and hGIIA localisation was also examined in PC-3 cells. PC-3 cells were co-transfected with EGFR-EGFP and Rab5-mCherry before treatment with hGIIA/AF647 and c2 at 0, 1 and 10 μM.

[5] = molecular target: EGFR (Homo sapiens, UniProt P00533); assay: Western blot of EGFR in PC-3 cells; type: cell-based; details: PC-3, 100 μM, 24 hours
Experimental: FIG. 3. (a) PC-3 cells treated with DMSO (0.5%), FLM-c2 (100 μM), D1-D3 (100 μM) or EGF (50 ng/mL) for 24 h, detected for EGFR and GAPDH. (b) PC-3 cells tagged with EGFR-EGFP and lysotracker treated with DMSO (0.5%) or D3 (100 μM) for 24 h.
FIG. 4. (a) PC-3 cells were treated with D1-D3 (100 μM) for 3, 16, 24 and 48 hours. EGFR and ß-Actin ratio was detected. (b) the EGFR:ß-Actin ratio was plotted after normalising to DMSO control.
PC-3 cells were seeded in a 6 well plate at 200,000 cells/well overnight at 37° C. and 5% C02. Media was removed, cells were washed with PBS and serum free media added 1 hour before treatment with FLM-c2, D1-D3 for 3-48 hours. After treatment, media was removed and cells were washed with ice cold PBS. PBS was removed and cells were scraped into 1 mL of PBS containing 5.3 mM of EDTA and centrifuged at 2500 g for 2 min. PBS was removed and cells were lysed with lysis buffer (PBS, 0.1% NP-40, 0.1% sodium deoxycholate, 150 mM NaCl, 1 mM EDTA, 1 mM dithiothreitol, 1 mM phenylmethylsulfonyl fluoride, and IX protease inhibitor cocktail)^17 and mixed with RM-2L Intelli-mixer for 30 min at 4° C. Lysates were then centrifuged at 12,000 g for 20 min at 4° C. 20 μg of lysate was added to 4 μL of Bolt reducing agent and 10 μL of reducing buffer (both reagents supplied by Thermo Fisher Scientific) for a final volume of 40 μL with PBS. Samples were boiled and run on a gel, transferred to a membrane and blocked for 1 hour in 5% skim milk at 25° C. Membrane was probed with either EGFR antibody #2232, GAPDH antibody #2118 or BS-Actin antibody #4970 (Cell Signalling) at 1:1000 in 5% skim milk/TBST overnight at 4° C. Each membrane was washed three times with 50 mL TBST for 5 mins and then incubated with the relevant secondary α-rabbit IgG-HRP-linked antibody (1:1000), for 1 hour at room temperature. The membrane was washed as described above and imaged with the Licor Odyssey.

[6] = tested on: hGIIA-driven eicosanoid production; details: prostate cancer cells; Mann et al. in review; cited from earlier work

T1 sequence (P00533 25-645 limits assumed): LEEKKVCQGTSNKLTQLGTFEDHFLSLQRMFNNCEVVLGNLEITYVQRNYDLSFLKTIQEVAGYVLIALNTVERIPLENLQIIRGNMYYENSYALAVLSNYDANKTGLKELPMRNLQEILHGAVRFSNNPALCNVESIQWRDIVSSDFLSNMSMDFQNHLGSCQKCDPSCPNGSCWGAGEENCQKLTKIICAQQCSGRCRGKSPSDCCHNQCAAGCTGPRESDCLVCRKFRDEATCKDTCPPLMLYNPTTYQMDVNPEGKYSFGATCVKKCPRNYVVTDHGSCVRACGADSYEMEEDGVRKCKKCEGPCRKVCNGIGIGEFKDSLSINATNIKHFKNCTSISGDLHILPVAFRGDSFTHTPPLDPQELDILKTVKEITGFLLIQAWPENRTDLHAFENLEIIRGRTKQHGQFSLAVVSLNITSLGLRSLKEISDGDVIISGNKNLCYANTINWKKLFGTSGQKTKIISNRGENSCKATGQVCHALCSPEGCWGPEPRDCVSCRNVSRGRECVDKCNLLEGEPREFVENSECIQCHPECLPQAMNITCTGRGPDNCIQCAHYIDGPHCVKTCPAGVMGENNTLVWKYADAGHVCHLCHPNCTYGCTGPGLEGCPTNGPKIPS
T2 sequence (P00533 25-1210): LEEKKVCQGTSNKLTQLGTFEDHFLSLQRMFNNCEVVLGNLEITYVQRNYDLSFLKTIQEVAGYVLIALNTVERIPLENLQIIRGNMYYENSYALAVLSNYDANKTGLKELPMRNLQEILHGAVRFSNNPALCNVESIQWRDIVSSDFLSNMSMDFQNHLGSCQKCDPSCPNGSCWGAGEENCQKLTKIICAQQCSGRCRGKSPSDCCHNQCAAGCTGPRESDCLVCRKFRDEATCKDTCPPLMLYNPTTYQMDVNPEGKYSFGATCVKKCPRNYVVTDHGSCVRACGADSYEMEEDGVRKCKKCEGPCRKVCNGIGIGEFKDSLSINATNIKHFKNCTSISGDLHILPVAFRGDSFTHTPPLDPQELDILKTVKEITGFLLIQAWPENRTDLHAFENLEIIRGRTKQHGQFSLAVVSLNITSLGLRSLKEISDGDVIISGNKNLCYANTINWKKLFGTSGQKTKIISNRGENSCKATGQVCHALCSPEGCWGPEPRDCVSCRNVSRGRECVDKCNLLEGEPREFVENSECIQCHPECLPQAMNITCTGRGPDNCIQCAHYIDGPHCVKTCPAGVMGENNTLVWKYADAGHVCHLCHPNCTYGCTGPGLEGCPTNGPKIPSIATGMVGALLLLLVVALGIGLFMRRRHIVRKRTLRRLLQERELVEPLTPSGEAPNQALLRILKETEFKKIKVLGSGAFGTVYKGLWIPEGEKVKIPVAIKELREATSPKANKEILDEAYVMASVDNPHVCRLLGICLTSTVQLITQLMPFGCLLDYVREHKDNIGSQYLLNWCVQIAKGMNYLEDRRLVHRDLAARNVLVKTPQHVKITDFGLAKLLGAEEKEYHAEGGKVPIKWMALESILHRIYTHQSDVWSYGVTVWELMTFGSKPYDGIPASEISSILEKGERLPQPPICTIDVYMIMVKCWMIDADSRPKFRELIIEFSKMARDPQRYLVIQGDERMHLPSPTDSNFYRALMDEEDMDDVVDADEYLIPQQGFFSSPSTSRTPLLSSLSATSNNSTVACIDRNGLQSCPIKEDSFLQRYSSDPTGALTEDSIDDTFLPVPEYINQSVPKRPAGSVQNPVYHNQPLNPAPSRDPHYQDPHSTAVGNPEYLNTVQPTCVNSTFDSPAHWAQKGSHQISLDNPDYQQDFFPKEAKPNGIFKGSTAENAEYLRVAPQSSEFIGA
Sequence of EGFR (P00533 25-1210): as above

## CC(C)C[C@@H]1NC(=O)[C@H](Cc2ccc3ccccc3c2)NC(=O)[C@H](CCCNC(=N)N)NC(=O)[C@H](Cc2ccc3ccccc3c2)NC(=O)[C@H](CO)NC1=O [FLM-c2, cyclo-((2-Nal)-Leu-Ser-(2-Nal)-Arg)] (cyclo([2Nal]LS[2Nal]R))
[1]
  IC50: 211 µM
[2]
  potency order in inhibiting the EGF/EGFR interaction: FLM-c2>D1>D2>D3
[2]; 0.01-200 μM
  inhibition of the EGF/EGFR interaction: inhibited the EGF/EGFR interaction at high concentrations
[3]
  inhibition of hGIIA-EGFR interaction (EGFR signal after pulldown with hGIIA antibody): able to inhibit this interaction
[4]
  effect on EGFR, Rab5 and hGIIA localisation: increased hGIIA/AF647 and Rab5-mCherry punctate size, as well as circularisation of EGFR-GFP expression
[5]
  EGFR degradation by western blot: did not
[6]
  inhibition of hGIIA-driven eicosanoid production: known to inhibit hGIIA-driven eicosanoid production
